Tests used:
[1] = after administration of the drug to patients (Wright et al. 1995); cited from earlier work
[2] = tested on: breast cancer cells transfected with the CYP2B1 gene; details: another study; cited from earlier work
[3] = tested on: breast cancer cells transfected with the CYP2B1 gene; details: another study; cited from earlier work; remark: listed apart in the source

Procedure for CYP2B1 expressing cells: After five additional days the cells were trypsinised and an aliquot mixed with the same amount of 0.4% Giemsa in PBS, incubated for 1 min and the living cells counted.

SMILES | plasma drug concentrations [1] [µM] | sensitivity of CYP2B1 expressing cells compared with cells not expressing CYP2B1 (CYP2B1 expressing cells) | effect on tumours after implantation in nude mice [2] | effect on CYP2B1 transfected breast cancer cells [3]
O=P1(NCCCl)OCCCN1CCCl (stereo not shown) [ifosfamide] | 100 to 500 | – | – | –
O=P1(N(CCCl)CCCl)NCCCO1 (stereo not shown) [cyclophosphamide] | – | tenfold higher sensitivity | tumour regression | cell killing

— patent US6540995B1, “Encapsulated cells producing cytochrome P450” (priority 1996, dated 2003)
